Data reported in patent US7872030B2, “Use of 2-[5-(4-fluorophenyl)-3-pyridylmethylaminomethyl]-chromane and its physiologically acceptable salts” (Merck Patent GmbH, priority 2001, dated 2011).

Assays:
rats = experiment: Induction of catalepsy in rats (extrapyramidal motor side effects); assay type: in vivo, rat; conditions: doses up to 500fold higher compared to the doses effective in the animal models
Procedure: Extrapyramidal motor side effects in e.g. rodents are measured by the ability of a drug to induce catalepsy. Catalepsy is defined as a state where an animal continues to remain in an unnormal (nonphysiological ‘uncomfortable’) posture for a long time (e.g.: M. E. Stanley and S. D. Glick, Neuropharmacology, 1996; 15: 393-394; C. J. E. Niemegeers and P. Janssen, Life Sci., 1979, […]). For example, if a hindpaw of a rat is placed on an elevated level, e.g. a platform elevated 3 cm above ground level, a normal rat immediately withdraws the hindpaw from the platform to the ground level. A cataleptic rat remains in this unnatural posture even for minutes.

dopamine D2 receptor = dopamine D2 receptor (Homo sapiens, UniProt P14416); experiment: D2 antagonism; conditions: under increased doses
Sequence of dopamine D2 receptor (P14416 whole entry, species assumed): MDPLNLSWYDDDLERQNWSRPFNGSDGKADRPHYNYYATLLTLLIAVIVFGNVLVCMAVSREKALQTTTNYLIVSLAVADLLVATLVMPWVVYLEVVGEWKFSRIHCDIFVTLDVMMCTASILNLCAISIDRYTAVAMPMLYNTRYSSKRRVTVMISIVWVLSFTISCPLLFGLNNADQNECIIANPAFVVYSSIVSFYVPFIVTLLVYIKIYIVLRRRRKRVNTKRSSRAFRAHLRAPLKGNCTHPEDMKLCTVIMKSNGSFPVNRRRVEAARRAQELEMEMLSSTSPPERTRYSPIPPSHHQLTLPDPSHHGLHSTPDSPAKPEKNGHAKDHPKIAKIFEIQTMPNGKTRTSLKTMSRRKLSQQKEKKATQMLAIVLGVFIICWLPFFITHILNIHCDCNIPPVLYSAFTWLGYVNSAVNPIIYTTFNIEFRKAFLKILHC

[1] = test system: Parkinsonian cynomolgus monkey; experiment: MPTP Parkinsonian cynomolgus monkey, Laval University Disability Scale; assay type: in vivo; conditions: MPTP monkeys
From the text: A typical animal model for idiopathic Parkinson's disease is the Parkinsonian cynomolgus monkey according to P. J. Blanchet et al., Exp. Neurology 1998; 153: 214-222. Monkeys render parkinsonian by repeated injections of 1-methyl-4-phenyl-1,2,3,6-tetrahydropyridine (MPTP). Parkinsonian symptoms are qualitatively assessed by the use of the Laval University Disability Scale (B. Gomez-Mancilla et al., 1993; Mov. Disord. 8: 144-150) measuring the following symptoms: posture, mobility, climbing, gait, holding food, vocalizing, grooming, social interaction.

[2] = test system: reserpinized rat or mouse; experiment: Reserpinized rat or mouse (akinesia); assay type: in vivo; conditions: 24 h after reserpine; for distance travelled and time active: activity meters
Procedure: A typical animal model is the reserpinized rat or mouse (e.g. […]. Neural Transm.-Park. Dis. Dement. Sect., 1994; 7: 133-142; M. Gossel et al., J. Neural Transm.-Park. Dis. Dement. Sect., 1995; 10: 27-39; N. R. Hughes et al., Mov. Disord., 1998; 13: 228-233). Reserpine is a potent depleter of monoamines and produces nearly complete akinesia in both species. Prominent 24 h after application, the distance travelled and the time active is nearly zero as measured in conventional activity meters.

[3] = test system: rats with nigrostriatal degeneration; experiment: Striatonigral degeneration in the rat, turning behavior; assay type: in vivo; conditions: 6-hydroxydopamine plus quinolinic acid lesioned rats
From the text: Another more recent animal model is the striatonigral degeneration approach in the rat according to […] et al., J. Neural Transm. Suppl., 1999; 55: 103-113. Rats receive an unilateral injection of 6-hydroxydopamine into the left medial forebrain bundle followed by an injection of quinolinic acid into the ipsilateral striatum inducing nigrostriatal degeneration. The degeneration results in turning behavior to a challenge with dopaminomimetics such as apomorphine or amphetamine. Turning behavior is measured by an automated recorder.

[4] = test system: genetically dystonic hamsters; experiment: Mutant dystonic hamster; conditions: in vivo
From the text: A typical animal model is the mutant dystonic hamster according to A. Richter and […], Prog. Neurobiol. 1998; 54: 633-677. In this genetically dystonic hamsters, dystonic attacks are provoked by taking the animal from the home cage and placing it on a balance. The dystonic syndrome consists of a sequence of abnormal movements, and the severity of the single symptoms is rated by a scoring system.

[5] = test system: rats challenged with haloperidol; experiment: Neuroleptics-induced muscle rigidity in rats; conditions: rat, in vivo
From the text: A typical animal model is neuroleptics-induced muscle rigidity in rats according to S. Wolfarth et al, Arch. Pharmacol. 1992; 345: 209-212. Rats are challenged with the conventional neuroleptic drug haloperidol which enhances muscle tone. Muscle tone is electromechanically measured as the resistence to passive flexion and extension of the hind limb.

[6] = test system: neuroleptics sensitized monkey; experiment: Neuroleptics sensitized monkey; assay type: in vivo; conditions: after haloperidol challenge
From the text: Another typical animal model is the neuroleptics sensitized monkey according to D. E. Casey, Psychopharmacology, 1996; 124: 134-140. Monkeys treated repeatedly with conventional neuroleptics are highly sensitive to a subsequent challenge dose of neuroleptic drugs. When challenged, the monkeys immediately show extrapyramidal motor side effects such as dystonia, dyskinesias, akathisia, and bradykinesia which are rated by a scoring system. The conventional neuroleptic drug haloperidol is given as a challenge.

Weaver mutant mouse = Weaver mutant mouse (locomotor activity); conditions: in vivo
From the text: Typical genetic models in mutant animals are the Campus Syndrome in the Pietrain pig according to A. Richter et al. (Exp. Neurology, 1995; 134: 205-213) or the Weaver mutant mouse according to J. R. Simon and B. Ghetti (Mol. Neurobiol., 1994; 9: 183-189). In the Campus Syndrome model, these mutant pigs show a high-frequency tremor when standing and during locomotion, but not while lying at rest. Assessment of tremor is made by accelerometric recording. In the Weaver mutant mouse, degenerative cerebellar atrophy is fould in association with tremor, gait instability, and toppling over the sides after a few steps.

[7] = test system: rats after cardiac arrest; experiment: Posthypoxic myoclonus in rats; conditions: rat, in vivo
Procedure: A typical animal model for myoclonus is myoclonus induced by an acute hypoxic episode according to D. D. Truong et al., Mov. Dsiord., 1994; 9: 201-206). In this model of posthypoxic myoclonus, rats undergo a cardiac arrest for 8 minutes and are resuscitated thereafter. Myoclonic jerks occur spontaneously but can be provoked by auditory stimulation, too, worsening over the days following cardiac arrest.

5-HT1A receptor = target: T1, 5-HT1A receptor (Homo sapiens, UniProt P08908); conditions: compared with buspirone (IC50 […] nmol/l)
T1 sequence (P08908 1-422): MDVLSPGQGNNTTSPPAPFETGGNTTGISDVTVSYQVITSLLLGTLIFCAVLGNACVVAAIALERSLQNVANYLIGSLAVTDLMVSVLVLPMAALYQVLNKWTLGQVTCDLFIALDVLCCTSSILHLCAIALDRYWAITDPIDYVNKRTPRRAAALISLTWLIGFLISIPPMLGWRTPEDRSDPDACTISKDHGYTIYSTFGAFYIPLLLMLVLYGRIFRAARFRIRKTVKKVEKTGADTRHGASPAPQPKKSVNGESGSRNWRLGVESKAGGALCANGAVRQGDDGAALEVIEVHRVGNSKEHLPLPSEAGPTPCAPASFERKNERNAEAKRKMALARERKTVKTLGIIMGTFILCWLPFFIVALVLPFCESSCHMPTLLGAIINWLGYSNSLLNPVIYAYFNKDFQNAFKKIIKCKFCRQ

dopamine D3 receptor = dopamine D3 receptor (Homo sapiens, UniProt P35462)
Sequence of dopamine D3 receptor (P35462 whole entry, species assumed): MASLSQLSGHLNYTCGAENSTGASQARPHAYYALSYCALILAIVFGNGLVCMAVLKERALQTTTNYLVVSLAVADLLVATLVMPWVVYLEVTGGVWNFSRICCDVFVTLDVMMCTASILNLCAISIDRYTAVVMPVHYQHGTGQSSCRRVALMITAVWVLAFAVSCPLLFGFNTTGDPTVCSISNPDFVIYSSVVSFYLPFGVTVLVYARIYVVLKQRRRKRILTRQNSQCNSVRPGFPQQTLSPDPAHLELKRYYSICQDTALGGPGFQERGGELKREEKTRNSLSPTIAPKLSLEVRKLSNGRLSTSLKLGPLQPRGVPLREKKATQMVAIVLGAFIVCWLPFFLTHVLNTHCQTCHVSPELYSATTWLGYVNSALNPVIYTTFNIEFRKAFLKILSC

| Structure (SMILES) | induction of catalepsy (rats) | D2 antagonism (dopamine D2 receptor) | parkinsonian symptoms (Laval University Disability Scale) [1] | total activity [1] | akinesia [2] | distance travelled and time active [2] | turning behavior induced by apomorphine or amphetamine [3] | severity of dystonic symptoms (score) [4] | muscle tone enhanced by haloperidol (resistance to passive flexion and extension of the hind limb) [5] | extrapyramidal motor side effects (dystonia, dyskinesias, akathisia, bradykinesia; score) [6] | locomotor activity (Weaver mutant mouse) | number of spontaneous and auditory-evoked myoclonic jerks [7] | agonist potency at the 5-HT1A receptor in contrast to buspirone (5-HT1A receptor) | affinity to the dopamine D3 receptor (dopamine D3 receptor) |
| --- | --- | --- | --- | --- | --- | --- | --- | --- | --- | --- | --- | --- | --- | --- |
| Fc1ccc(-c2cncc(CNC[C@@H]3CCc4ccccc4O3)c2)cc1 [(S)-(+)-2-[5-(4-fluorophenyl)-3-pyridylmethylaminomethyl]-chromane] | do not induce any catalepsy | exhibit a D2 antagonism | reduced all the parkinsonian symptoms | increased total activity | dose-dependently reduced akinesia | restored distance travelled and time active to about the level of normal animals | dose-dependently antagonized | dose-dependently reduce the severity of dystonic symptoms | decrease the mucle tone enhanced by haloperidol | dose-dependently reduce the extrapyramidal motor side effects | enhance locomotor activity | dose-dependently reduce the number of spontaneous and auditory-evoked myoclonic jerks | more potent agonists | high affinity |
| Fc1ccc(-c2cncc(CNCC3CCc4ccccc4O3)c2)cc1 (racemic) [(R/S)-(−/+)-2-[5-(4-fluorophenyl)-3-pyridylmethylaminomethyl]-chromane] | do not induce any catalepsy | exhibit a D2 antagonism | reduced all the parkinsonian symptoms | increased total activity | dose-dependently reduced akinesia | restored distance travelled and time active to about the level of normal animals | dose-dependently antagonized | dose-dependently reduce the severity of dystonic symptoms | decrease the mucle tone enhanced by haloperidol | dose-dependently reduce the extrapyramidal motor side effects | enhance locomotor activity | dose-dependently reduce the number of spontaneous and auditory-evoked myoclonic jerks | more potent agonists | high affinity |
